Tests used:
ZEAMX (Corn, Field) [1] = assay: Preemergence herbicidal evaluation; type: in vivo, Zea mays; settings: rated 4-5 weeks after treatment, rating scale 0-9
Method in brief: (§1)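 Scores use a 0–9 visual scale covering stand, vigor, malformation, size and chlorosis relative to controls, rated four to five weeks after treatment. Before emergence, soil-planted seeds were sprayed with compound in aqueous acetone at roughly 0.0156–0.500 kg/ha and held in the greenhouse.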

ZEAMX (Corn, Field) [2] = assay: Postemergence herbicidal evaluation; type: in vivo, Zea mays; settings: postemergence
Method in brief: (§2)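 ~2-wk seedlings; postemergence spray, 40 psi; vehicle 1:1 acetone:water + 0.5% Tween 20; rate ≈0.0156–0.500 kg/ha; greenhouse hold; scored 4–5 wk after treatment, 0–9 scale vs control; repeat tests averaged.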

CASOB (Sicklepod) = assay: Preemergence herbicidal evaluation; type: in vivo, Cassia obtusifolia; settings: rated 4-5 weeks after treatment, rating scale 0-9
Method in brief: as §1

[3] = test system: GLXMAW (Soybean, Williams); assay: Preemergence herbicidal evaluation; type: in vivo, Glycine max, (L.) Merr. cv Williams; settings: rated 4-5 weeks after treatment, rating scale 0-9
Method in brief: as §1

ORYSAT (Rice, Tebonnet) = assay: Postemergence herbicidal evaluation; type: in vivo, Oryza sativa, (L.) Tebonnet; settings: postemergence
Method in brief: as §2

[4] = test system: CHEAL (Lambsquarters, Common); assay: Postemergence herbicidal evaluation; type: in vivo, Chenopodium album; settings: postemergence
Method in brief: as §2

[5] = test system: TRZAWR (Wheat, Winter, cv Riband); assay: Preemergence herbicidal evaluation; type: in vivo, Triticum aestivum; settings: rated 4-5 weeks after treatment, rating scale 0-9
Method in brief: as §1

[6] = test system: CHEAL (Lambsquarters, Common); assay: Preemergence herbicidal evaluation; type: in vivo, Chenopodium album; settings: rated 4-5 weeks after treatment, rating scale 0-9
Method in brief: as §1

[7] = test system: IPOHE (Morningglory, Ivyleaf); assay: Postemergence herbicidal evaluation; type: in vivo, Ipomoea hederacea; settings: postemergence
Method in brief: as §2

[8] = test system: IPOHE (Morningglory, Ivyleaf); assay: Preemergence herbicidal evaluation; type: in vivo, Ipomoea hederacea; settings: rated 4-5 weeks after treatment, rating scale 0-9
Method in brief: as §1

ABUTH (Velvetleaf) [9] = assay: Postemergence herbicidal evaluation; type: in vivo, Abutilon theophrasti; settings: postemergence
Method in brief: as §2

ABUTH (Velvetleaf) [10] = assay: Preemergence herbicidal evaluation; type: in vivo, Abutilon theophrasti; settings: rated 4-5 weeks after treatment, rating scale 0-9
Method in brief: as §1

ECHCG (Barnyardgrass) [11] = assay: Postemergence herbicidal evaluation; type: in vivo, Echinochloa crus-galli; settings: postemergence
Method in brief: as §2

SETVI (Foxtail, Green) = assay: Postemergence herbicidal evaluation; type: in vivo, Setaria viridis; settings: postemergence
Method in brief: as §2

ECHCG (Barnyardgrass) [12] = assay: Preemergence herbicidal evaluation; type: in vivo, Echinochloa crus-galli; settings: rated 4-5 weeks after treatment, rating scale 0-9
Method in brief: as §1

Compound: COc1ccc(CN2C(=O)CSC2=Nc2cc(-n3c(=O)cc(C(F)(F)F)n(C)c3=O)c(F)cc2Cl)cc1OC [Compound 134, 3-{4-Chloro-5-{[3-(3,4-dimethoxybenzyl)-4-oxo-2-thiazolidinylidene]amino}-2-fluorophenyl}-1-methyl-6-(trifluoromethyl)-2,4(1H,3H)-pyrimidinedione]
- Preemergence herbicidal rating ZEAMX (ZEAMX (Corn, Field) [1]; rate 0.1250 kg/ha): 0.0
- Preemergence herbicidal rating ZEAMX (ZEAMX (Corn, Field) [1]; rate 0.2500 kg/ha): 0.0
- herbicidal rating ZEAMX (ZEAMX (Corn, Field) [2]; rate 0.0156 kg/ha): 3.5
- herbicidal rating ZEAMX (ZEAMX (Corn, Field) [2]; rate 0.0313 kg/ha): 4.5
- herbicidal rating ZEAMX (ZEAMX (Corn, Field) [2]; rate 0.0625 kg/ha): 4.5
- Preemergence herbicidal rating CASOB (CASOB (Sicklepod); rate 0.1250 kg/ha): 0.0
- Preemergence herbicidal rating CASOB (CASOB (Sicklepod); rate 0.2500 kg/ha): 1.0
- Preemergence herbicidal rating GLXMAW ([3]; rate 0.1250 kg/ha): 0.0
- Preemergence herbicidal rating GLXMAW ([3]; rate 0.2500 kg/ha): 0.0
- herbicidal rating ORYSAT (ORYSAT (Rice, Tebonnet); rate 0.0156 kg/ha): 1.0
- herbicidal rating ORYSAT (ORYSAT (Rice, Tebonnet); rate 0.0313 kg/ha): 1.5
- herbicidal rating ORYSAT (ORYSAT (Rice, Tebonnet); rate 0.0625 kg/ha): 2.0
- herbicidal rating CHEAL ([4]; rate 0.0156 kg/ha): 1.0
- herbicidal rating CHEAL ([4]; rate 0.0313 kg/ha): 3.0
- herbicidal rating CHEAL ([4]; rate 0.0625 kg/ha): 4.0
- Preemergence herbicidal rating TRZAWR ([5]; rate 0.1250 kg/ha): 0.0
- Preemergence herbicidal rating TRZAWR ([5]; rate 0.2500 kg/ha): 0.0
- Preemergence herbicidal rating CHEAL ([6]; rate 0.1250 kg/ha): 9.0
- Preemergence herbicidal rating CHEAL ([6]; rate 0.2500 kg/ha): 9.0
- herbicidal rating IPOHE ([7]; rate 0.0156 kg/ha): 3.0
- herbicidal rating IPOHE ([7]; rate 0.0313 kg/ha): 9.0
- herbicidal rating IPOHE ([7]; rate 0.0625 kg/ha): 9.0
- Preemergence herbicidal rating IPOHE ([8]; rate 0.1250 kg/ha): 0.0
- Preemergence herbicidal rating IPOHE ([8]; rate 0.2500 kg/ha): 0.0
- herbicidal rating ABUTH (ABUTH (Velvetleaf) [9]; rate 0.0156 kg/ha): 5.0
- herbicidal rating ABUTH (ABUTH (Velvetleaf) [9]; rate 0.0313 kg/ha): 7.0
- herbicidal rating ABUTH (ABUTH (Velvetleaf) [9]; rate 0.0625 kg/ha): 9.0
- Preemergence herbicidal rating ABUTH (ABUTH (Velvetleaf) [10]; rate 0.1250 kg/ha): 0.0
- Preemergence herbicidal rating ABUTH (ABUTH (Velvetleaf) [10]; rate 0.2500 kg/ha): 7.0
- herbicidal rating ECHCG (ECHCG (Barnyardgrass) [11]; rate 0.0156 kg/ha): 0.0
- herbicidal rating ECHCG (ECHCG (Barnyardgrass) [11]; rate 0.0313 kg/ha): 2.0
- herbicidal rating ECHCG (ECHCG (Barnyardgrass) [11]; rate 0.0625 kg/ha): 1.0
- herbicidal rating SETVI (SETVI (Foxtail, Green); rate 0.0156 kg/ha): 0.0
- herbicidal rating SETVI (SETVI (Foxtail, Green); rate 0.0313 kg/ha): 0.0
- herbicidal rating SETVI (SETVI (Foxtail, Green); rate 0.0625 kg/ha): 1.0
- Preemergence herbicidal rating ECHCG (ECHCG (Barnyardgrass) [12]; rate 0.1250 kg/ha): 0.0
- Preemergence herbicidal rating ECHCG (ECHCG (Barnyardgrass) [12]; rate 0.2500 kg/ha): 0.0

Compound: Cn1c(C(F)(F)F)cc(=O)n(-c2cc(N=C3SCC(=O)N3Cc3ccc(S(N)(=O)=O)cc3)c(Cl)cc2F)c1=O [Compound 135, Alpha-{2-{{2-chloro-5-[3,6-dihydro-3-methyl-2,6-dioxo-4-(trifluoromethyl)-1(2H)-pyrimidinyl]-4-fluorophenyl}imino}-4-oxo-3-thiazolidinyl}-p-toluenesulfonamide]
- Preemergence herbicidal rating ZEAMX (ZEAMX (Corn, Field) [1]; rate 0.0156 kg/ha): 1.0
- Preemergence herbicidal rating ZEAMX (ZEAMX (Corn, Field) [1]; rate 0.0313 kg/ha): 1.0
- Preemergence herbicidal rating ZEAMX (ZEAMX (Corn, Field) [1]; rate 0.0625 kg/ha): 0.0
- Preemergence herbicidal rating ZEAMX (ZEAMX (Corn, Field) [1]; rate 0.1250 kg/ha): 2.0
- Preemergence herbicidal rating ZEAMX (ZEAMX (Corn, Field) [1]; rate 0.2500 kg/ha): 1.0
- herbicidal rating ZEAMX (ZEAMX (Corn, Field) [2]; rate 0.0156 kg/ha): 3.5
- herbicidal rating ZEAMX (ZEAMX (Corn, Field) [2]; rate 0.0313 kg/ha): 4.0
- herbicidal rating ZEAMX (ZEAMX (Corn, Field) [2]; rate 0.0625 kg/ha): 4.0
- Preemergence herbicidal rating CASOB (CASOB (Sicklepod); rate 0.0156 kg/ha): 0.0
- Preemergence herbicidal rating CASOB (CASOB (Sicklepod); rate 0.0313 kg/ha): 1.0
- Preemergence herbicidal rating CASOB (CASOB (Sicklepod); rate 0.0625 kg/ha): 1.0
- Preemergence herbicidal rating CASOB (CASOB (Sicklepod); rate 0.1250 kg/ha): 1.0
- Preemergence herbicidal rating CASOB (CASOB (Sicklepod); rate 0.2500 kg/ha): 5.0
- Preemergence herbicidal rating GLXMAW ([3]; rate 0.0156 kg/ha): 0.0
- Preemergence herbicidal rating GLXMAW ([3]; rate 0.0313 kg/ha): 0.0
- Preemergence herbicidal rating GLXMAW ([3]; rate 0.0625 kg/ha): 0.0
- Preemergence herbicidal rating GLXMAW ([3]; rate 0.1250 kg/ha): 1.0
- Preemergence herbicidal rating GLXMAW ([3]; rate 0.2500 kg/ha): 3.0
- herbicidal rating ORYSAT (ORYSAT (Rice, Tebonnet); rate 0.0156 kg/ha): 2.0
- herbicidal rating ORYSAT (ORYSAT (Rice, Tebonnet); rate 0.0313 kg/ha): 2.0
- herbicidal rating ORYSAT (ORYSAT (Rice, Tebonnet); rate 0.0625 kg/ha): 2.5
- herbicidal rating CHEAL ([4]; rate 0.0156 kg/ha): 4.0
- herbicidal rating CHEAL ([4]; rate 0.0313 kg/ha): 7.0
- herbicidal rating CHEAL ([4]; rate 0.0625 kg/ha): 9.0
- Preemergence herbicidal rating TRZAWR ([5]; rate 0.0156 kg/ha): 0.0
- Preemergence herbicidal rating TRZAWR ([5]; rate 0.0313 kg/ha): 0.0
- Preemergence herbicidal rating TRZAWR ([5]; rate 0.0625 kg/ha): 0.0
- Preemergence herbicidal rating TRZAWR ([5]; rate 0.1250 kg/ha): 0.0
- Preemergence herbicidal rating TRZAWR ([5]; rate 0.2500 kg/ha): 1.0
- Preemergence herbicidal rating CHEAL ([6]; rate 0.0156 kg/ha): 7.0
- Preemergence herbicidal rating CHEAL ([6]; rate 0.0313 kg/ha): 7.0
- Preemergence herbicidal rating CHEAL ([6]; rate 0.0625 kg/ha): 9.0
- Preemergence herbicidal rating CHEAL ([6]; rate 0.1250 kg/ha): 9.0
- Preemergence herbicidal rating CHEAL ([6]; rate 0.2500 kg/ha): 9.0
- herbicidal rating IPOHE ([7]; rate 0.0156 kg/ha): 9.0
- herbicidal rating IPOHE ([7]; rate 0.0313 kg/ha): 9.0
- herbicidal rating IPOHE ([7]; rate 0.0625 kg/ha): 9.0
- Preemergence herbicidal rating IPOHE ([8]; rate 0.0156 kg/ha): 0.0
- Preemergence herbicidal rating IPOHE ([8]; rate 0.0313 kg/ha): 0.0
- Preemergence herbicidal rating IPOHE ([8]; rate 0.0625 kg/ha): 1.0
- Preemergence herbicidal rating IPOHE ([8]; rate 0.1250 kg/ha): 9.0
- Preemergence herbicidal rating IPOHE ([8]; rate 0.2500 kg/ha): 9.0
- herbicidal rating ABUTH (ABUTH (Velvetleaf) [9]; rate 0.0156 kg/ha): 4.0
- herbicidal rating ABUTH (ABUTH (Velvetleaf) [9]; rate 0.0313 kg/ha): 9.0
- herbicidal rating ABUTH (ABUTH (Velvetleaf) [9]; rate 0.0625 kg/ha): 9.0
- Preemergence herbicidal rating ABUTH (ABUTH (Velvetleaf) [10]; rate 0.0156 kg/ha): 0.0
- Preemergence herbicidal rating ABUTH (ABUTH (Velvetleaf) [10]; rate 0.0313 kg/ha): 0.0
- Preemergence herbicidal rating ABUTH (ABUTH (Velvetleaf) [10]; rate 0.0625 kg/ha): 3.0
- Preemergence herbicidal rating ABUTH (ABUTH (Velvetleaf) [10]; rate 0.1250 kg/ha): 6.0
- Preemergence herbicidal rating ABUTH (ABUTH (Velvetleaf) [10]; rate 0.2500 kg/ha): 8.0
- herbicidal rating ECHCG (ECHCG (Barnyardgrass) [11]; rate 0.0156 kg/ha): 1.0
- herbicidal rating ECHCG (ECHCG (Barnyardgrass) [11]; rate 0.0313 kg/ha): 2.0
- herbicidal rating ECHCG (ECHCG (Barnyardgrass) [11]; rate 0.0625 kg/ha): 2.0
- herbicidal rating SETVI (SETVI (Foxtail, Green); rate 0.0156 kg/ha): 2.0
- herbicidal rating SETVI (SETVI (Foxtail, Green); rate 0.0313 kg/ha): 4.0
- herbicidal rating SETVI (SETVI (Foxtail, Green); rate 0.0625 kg/ha): 6.0
- Preemergence herbicidal rating ECHCG (ECHCG (Barnyardgrass) [12]; rate 0.0156 kg/ha): 0.0
- Preemergence herbicidal rating ECHCG (ECHCG (Barnyardgrass) [12]; rate 0.0313 kg/ha): 0.0
- Preemergence herbicidal rating ECHCG (ECHCG (Barnyardgrass) [12]; rate 0.0625 kg/ha): 0.0
- Preemergence herbicidal rating ECHCG (ECHCG (Barnyardgrass) [12]; rate 0.1250 kg/ha): 0.0
- Preemergence herbicidal rating ECHCG (ECHCG (Barnyardgrass) [12]; rate 0.2500 kg/ha): 1.0
